The text below walks through data of patent US10183908B2, “Compositions for the treatment of kidney and/or liver disease” (VECTUS BIOSYSTEMS LIMITED, priority 2015, dated 2019).

The test system of test [1] is A10 embryonic vascular smooth muscle cells. Description: xCELLigence cell impedance in A10 vascular smooth muscle cells. It is filed as cell-based. The settings on record: test compounds at 62.5, 125 or 250 μM; FIG. 8; negative response = direct vasodilator. The text has this:
The xCELLigence SP system (Roche) was used to measure changes in cellular impedance (cell index) following the treatment of A10 embryonic vascular smooth muscle cells (ATCC, CRL-1476) with test compound. In this in vitro cell based experimental system a negative impedance profile correlates with blood pressure reduction in rats—a decrease in impedance is associated with vasodilatation and an increase in impedance is associated with vasoconstriction (Stallaert W, Dorn J F, van der Westhuizen E, Audet M & Bouvier M. Impedance responses reveal β-adrenergic signaling […] and allow classification of ligands with distinct signalling profiles PLoS ONE 2012; 7(1):e29420, doi:10.1371/journal.pone.0029420).
(§1) Briefly, 50 μl of cell culture medium (DMEM low glucose supplemented with 10% fetal bovine serum at 37° C.) was added to each well of an E-Plate 96 (Roche), and the background impedance in each well was measured. 50 μl of A-10 cell suspension (10,000 cells/well) was then added to the appropriate wells of the E-Plate 96. Cell index was monitored for each well of the E-Plate 96 in RTCA SP Station within the cell culture incubator. After overnight incubation for 16-20 hours at 5% CO2 and 95% humidity, 100 μl of test compound solution (test compounds were prepared in DMSO and diluted with cell culture medium to a final DMSO concentration of 0.25%) was added to the appropriate wells of the E-Plate 96 and cell index values were measured immediately following compound treatment every 20 seconds for 3 hours. Cell index value is baseline-corrected by subtracting the cell index of vehicle-treated cells and normalized by dividing by the cell index at the time point immediately before compound addition. Baseline normalized cell index as a function of time is plotted using Roche RTCA software.
Compounds may achieve reductions in blood pressure by interaction with vascular smooth muscle cells causing these cells to relax resulting in vasodilatation and a reduction in blood pressure. These are termed direct vasodilators.

The test system of test [2] is SHR. Description: Kidney fibrosis in SHR (Masson's trichrome). The class given is in vivo, rat. The settings on record: SHR on 2.2% salt diet, 500 pmol/kg/min, 4 weeks; for Fibrosis in the kidney compared to 18 week controls: FIG. 12, *p<0.05. The text has this: (§2) Fourteen week old SHR (on a 2.2% salt diet; Glen Forrest Stockfeeders) were randomly assigned to zero time control (14 week old rats), test compound treatment drinking solution (500 pmol/kg/min in deionised distilled water) or control drinking solution (5% ethanol in deionised distilled water). The rats assigned to zero time control group (14 week old rats) were anaesthetised and had their kidneys and liver harvested while rats assigned to control and test compound treatment were weighed twice weekly and had their drinking solution intake monitored to allow adjustment of the test compound concentration in the drinking solution to maintain a constant dose over the 4-week study period. Blood pressure was measured twice weekly by tail cuff plethysmography (PowerLab, ADInstruments, Castle Hill, NSW, Australia). After 4 weeks rats were anaesthetised (18 week old rats), and their kidneys and liver harvested. To quantitate tissue fibrosis and/or fat content, tissue slices ≤3 mm thick were fixed in 10% buffered formalin for 24 hours, processed and embedded in paraffin. Three micron transverse sections were stained using Masson's trichrome stain. A minimum of 20 random fields at magnification ×20 from transverse sections (5 at each of 2 levels) were digitized and the degree of fibrosis and fat content determined as a percent of field area of each digitized image using Image-Pro Plus V.7 (Media Cybernetics, Bethesda, Md., USA) then averaged to determine the level of fibrosis and/or fat content for each rat.

Test [3] has as its system SHR. Description: Blood pressure in SHR by tail cuff plethysmography. It is filed as in vivo, rat. The settings on record: SHR on 2.2% salt diet; 500 pmol/kg/min in drinking solution; 4 weeks; systolic, FIG. 11. The text has this: Fourteen week old SHR (on a 2.2% salt diet; Glen Forrest Stockfeeders) were randomly assigned to zero time control (14 week old rats), test compound treatment drinking solution (500 pmol/kg/min in deionised distilled water) or control drinking solution (5% ethanol in deionised distilled water). The rats assigned to zero time control group (14 week old rats) were anaesthetised and had their kidneys and liver harvested while rats assigned to control and test compound treatment were weighed twice weekly and had their drinking solution intake monitored to allow adjustment of the test compound concentration in the drinking solution to maintain a constant dose over the 4-week study period. Blood pressure was measured twice weekly by tail cuff plethysmography (PowerLab, ADInstruments, Castle Hill, NSW, Australia). After 4 weeks rats were anaesthetised (18 week old rats), and their kidneys and liver harvested.

Test [4] concerns Rat (NRK-52E) renal proximal tubule cells. Description: Rescue of renal proximal tubule cells from cisplatin cytotoxicity (WST-8/CCK-8). It is filed as cell-based. The settings on record: test compound 30 μM; cisplatin 5 μg/ml; 24 or 48 hours; FIG. 10. The protocol: Rat (NRK-52E) renal proximal tubule cells grown in DMEM+10% FBS+1% NEAA+2 mM glutamine were placed in 96 well plates at 10,000 cells/well and incubated at 37° C. with 5% CO2 overnight. Test compounds at a concentration of 30 μM were incubated with human or rat renal proximal tubule cells for 2 hours at 37° C. and 5% CO2. Cis-diamminedichloroplatinum[…] (cisplatin) was then added at […] and each cell population was then incubated for 24 or 48 hours at 37° C. with 5% CO2. Test compounds were maintained at their original concentrations. To assay the cytotoxic effects of cisplatin on the rat renal proximal tubule cells a highly water-soluble tetrazolium salt, WST-8, which is reduced by dehydrogenases in cells to produce formazan, a water-soluble, yellow-coloured indicator dye was used following the manufacturer's instructions (specifically the Cell Count Kit-8 (CCK-8) assay from Sigma). Plate absorbance of the WST-8 (CCK-8) reagent was then measured at 450 nm using a Thermo Scientific Multiskan EX plate reader.

In test [5] the test system is bovine aortic endothelial cells. Description: xCELLigence cell impedance in bovine aortic endothelial cells. To be noted: test compounds at 62.5, 125 or 250 μM; FIG. 9; negative response = indirect vasodilator. The class given is cell-based. The protocol:
as §1
The xCELLigence SP system was also used to measure changes in cellular impedance following the treatment of bovine aortic endothelial cells (European Collection of Cell Cultures) with test compound. The method employed is the same for the A10 embryonic vascular smooth muscle cells described above but with the cell culture medium supplemented with 15% fetal bovine serum instead of 10%.
Compounds may interact with vascular endothelial cells causing the release of substances such as nitric oxide and endothelium-derived hyperpolarising factor, which in turn act on the vascular smooth muscle cells causing vasodilatation and lowering blood pressure. Such compounds are termed indirect vasodilators.

Test [6] concerns SHR. Description: Hepatic fibrosis in SHR (Masson's trichrome). The class given is in vivo, rat. To be noted: for Tissue architecture of portal tracts in Masson's tri-chrome stained liver sections: SHR treated rats vs control, FIG. 14; for Fibrosis in the liver compared to 18 week controls: SHR, 500 pmol/kg/min, 4 weeks, FIG. 13, *p<0.05, **p<0.025, ***p<0.01.
Excerpt: as §2

In test [7] the test system is SHR. Description: Hepatic fat content in SHR. To be noted: SHR on 2.2% salt diet; 500 pmol/kg/min; 4 weeks; FIG. 15, *p<0.05, **p<0.025, ***p<0.01. The class given is in vivo, rat.
Excerpt: as §2

On to `NC(=O)CCc1cc(-c2ccsc2)ccc1-c1cccc(O)c1` [Compound P8, 3-(3′-Hydroxy-4-(thiophen-3-yl)-[1,1′biphenyl]-2-yl)propanamide], for which the “impedance response for A10 vascular smooth muscle cells” value in test [1] was “Negative impedance responses”. Besides, the “Fibrosis in the kidney compared to 18 week controls” value in test [2] is “decreased”. For the same compound, in test [3], the Blood pressure entry is reported as “reduced”. In addition, the “Cisplatin induced cell death in renal proximal tubular cells” value (shortened to “Cisplatin induced cell death”) in test [4] is “decreased”. For the same compound, in test [5], the “impedance response for bovine aortic endothelial cells” value was “Negative impedance responses”. Also, in test [6], the “Tissue architecture of portal tracts in Masson's tri-chrome stained liver sections” value is “normal tissue architecture has been restored” and the “Fibrosis in the liver compared to 18 week controls” value is recorded as “decreased”.
`NC(=O)CCc1cc(-c2cccnc2)ccc1-c1cccc(O)c1` [Compound P5, 3-(3′-Hydroxy-4-(pyridin-3-yl)-[1,1′-biphenyl]-2-yl)propanamide]: the “impedance response for A10 vascular smooth muscle cells” value in test [1] is “Negative impedance responses”. Also, the “Fibrosis in the kidney compared to 14 week controls” value in test [2] (FIG. 12, #p<0.05, reversal of established fibrosis) was “decreased”. In addition, the “Fibrosis in the kidney compared to 18 week controls” value in test [2] is reported as “decreased”. Besides, the Blood pressure entry in test [3] was “reduced”. In test [4], the “Cisplatin induced cell death” value is “decreased”.
As for `NC(=O)CCc1cc(-c2cncnc2)ccc1-c1cccc(O)c1` [Compound P26, 3-(3′-Hydroxy-4-(pyrimidin-5-yl)-[1,1-biphenyl]-2-yl)propanamide], the “Fibrosis in the kidney compared to 18 week controls” value in test [2] was “decreased”. The “Fat in the liver compared to 18 week controls” value in test [7] was “reduced”. For the same compound, the “Cisplatin induced cell death” value in test [4] is recorded as “decreased”. Also, the “impedance response for bovine aortic endothelial cells” value in test [5] is reported as “Negative impedance responses”. Moreover, in test [6], the “Tissue architecture of portal tracts in Masson's tri-chrome stained liver sections” value was “normal tissue architecture has been restored” and the “Fibrosis in the liver compared to 18 week controls” value was “decreased”.
On to `Cc1nc(C)c(-c2ccc(-c3cccc(O)c3)c(CCC(N)=O)c2)s1` [Compound P40, 3-(4-(2,4-Dimethylthiazol-5-yl)-3′-hydroxy-[1,1′biphenyl]-2-yl)propanamide], for which the “Fibrosis in the kidney compared to 18 week controls” value in test [2] is “decreased”. Also, the Blood pressure entry in test [3] is “reduced”. For the same compound, the “Fat in the liver compared to 18 week controls” value in test [7] is given as “reduced”. Moreover, in test [4], the “Cisplatin induced cell death” value is recorded as “decreased”. In test [6], the “Fibrosis in the liver compared to 18 week controls” value is listed as “decreased”.
`NC(=O)CCc1cc(-c2cn[nH]c2)ccc1-c1cccc(O)c1` [Compound P22, 3-(3′-Hydroxy-4-(1H-pyrazol-4-yl)-[1,1′-biphenyl]-2-yl)propanamide]: the “Fibrosis in the kidney compared to 18 week controls” value in test [2] is given as “decreased”. The Blood pressure entry in test [3] is reported as “reduced”. The “Fat in the liver compared to 18 week controls” value in test [7] is listed as “reduced”. In addition, the “Cisplatin induced cell death” value in test [4] is “decreased”. The “impedance response for bovine aortic endothelial cells” value in test [5] was “Negative impedance responses”. In addition, in test [6], the “Fibrosis in the liver compared to 18 week controls” value is “decreased”.
